Measurements reported in patent US20210353577A1, “METHODS FOR THE PREPARATION OF A LEVOTHYROXINE SOLUTION” (EMP Levo US B.V., priority 2016, published 2021).
Like-named read-outs stand apart in the source and are kept apart here.

Assays:
[1] = cited from earlier work; for behaviour in an aqueous solution: GB2191695
[2] = system: micro-organisms as shown in the tables 10A-F; test: Efficacy of antimicrobial preservation, overall judgement; format: cell-based; details: Ph. Eur. 9.0, section 5.1.3; in oral levothyroxine solution
Description: Preservation Efficacy Tests […] As comparison, sample 1 of U.S. Pat. No. 9,345,722 has been prepared, in accordance with example 6 of U.S. Pat. No. 9,345,722. The test consists of challenging the sample solution with a prescribed inoculum of suitable micro-organisms as shown in the tables 10A-F, storing the inoculated solution at ambient temperature, avoiding sunlight, withdrawing samples from the container at specified intervals of time and counting the micro-organisms in the samples so removed. The preservative properties of the solution are adequate if, in the conditions of the test, there is a significant fall or no increase, as appropriate, in the number of micro-organisms in the inoculated solution after 14 and 28 days. ATCC stands for the deposit number of the micro-organism at the American Type Culture Collection ATCC.

Row | Structure (SMILES) | efficacy of antimicrobial preservation in words [2] | also measured
1 | N[C@@H](Cc1cc(I)c(Oc2cc(I)c(O)c(I)c2)c(I)c1)C(=O)[O-].[Na+] [Levothyroxine sodium, sodium (2S)-2-amino-3-[4-(4-hydroxy-3,5-diiodophenoxy)-3,5-diiodophenyl]-propanoate] |  | solubility in 96% ethanol ([1]; 96% ethanol): slightly soluble; solubility in water ([1]; water): very slightly soluble
2 | O=C(O)c1ccccc1 [benzoic acid] | comply with the relevant criteria | 
3 | N[C@@H](Cc1cc(I)c(Oc2cc(I)c(O)c(I)c2)c(I)c1)C(=O)O [levothyroxine, 3,5,3′,5′-tetraiodo-L-thyronine] |  | behaviour in an aqueous solution ([1]; pH 11-12): dissolves; behaviour in an aqueous solution ([1]; pH lowered further to pH 5-6): formation of a precipitate; behaviour in an aqueous solution ([1]; pH lowered to pH 7): white pale suspension
4 | O=C([O-])c1ccccc1.[K+] [potassium benzoate] | results similar to that of sodium benzoate | 
5 | C/C=C/C=C/C(=O)[O-].[K+] [potassium sorbate] | results similar to that of sorbic acid | 
6 | O=C([O-])c1ccccc1.[Na+] [sodium benzoate] | comply with the relevant criteria | 
7 | COC(=O)c1ccc(O)cc1.[Na] [sodium methyl paraben, sodium methyl parahydroxybenzoate] | less efficient preservative | 
8 | C/C=C/C=C/C(=O)[O-].[Na+] [sodium sorbate] | results similar to that of sorbic acid | 
9 | C/C=C/C=C/C(=O)O [sorbic acid] | comply with the relevant criteria | 
